Measurements reported in patent US4980349A, “Sulphonamides derived from diarylmethanes, the processes for preparing them and pharmaceutical compositions containing them” (SANOFI, priority 1986, dated 1990).
Where two headings read alike, the source gives them in different places.

Legend:
[1] = test system: biosynthesis of leukotrienes B4 (LTB4), human polymorphonuclear leukocytes; test: Biosynthesis of LTB4, isomers and oxidized metabolites in human polymorphonuclear leukocytes; assay type: cell-based; settings: Leukocyte
Procedure: Polymorphonuclear leukocytes are isolated from human blood and used during the 6 hours following the withdrawal. The viability of the cells is checked by trypan blue exclusion.
5×10^6 cells are incubated for 10 minutes at 37° C. in the presence of the test product dissolved in DMSO, and are stimulated with ionophore A 23187 (Galbiochem, 10 μM) in PBS buffer at pH 7.4, Ca^2+ and Mg^2+ =1 μM.
100 ng of prostaglandin B2 (PGB2), dissolved in methanol, are added at the end of the reaction to act as an internal standard.
On centrifugation, the culture supernatant is withdrawn. The latter is retrieved under argon and stored at -80° C. until analysed by HPLC.
This analysis is carried out by injecting 250 μl onto a 5 μm ODS ultrasphere column (Beckmann), with a gradient of acetonitrile (20-80%) in water, at pH 7.4.
The amounts of the different products which absorb at 269 nm, i.e. leukotrienes B4 (LTB4), isomers of LTB4 and oxidized metabolites of LTB4, are estimated by comparison with the internal standard.
The test product is used at a concentration of 40 μM.
They are expressed either as a percentage inhibition, or as a percentage increase in the production of LTB4, isomers of LTB4 and oxidized metabolites of LTB4 (designated by +).
The experimental model is the same as that described in Section 2.1. Other products are tested by comparison with the compound of the invention no. 1574, used as a control.

[2] = test system: pain threshold of brewer's yeast inflamed rat hind foot; test: Randall and Sellitto's test (analgesic activity); assay type: in vivo; settings: first experiment, Table XII, read-out: percentage increase in the mean pain threshold; for change in vivo at 25 mg/kg: 25 mg/kg oral; for change in vivo at 50 mg/kg: 50 mg/kg oral; for change in vivo at 100 mg/kg: 100 mg/kg oral
Procedure: Inflammation increases the sensitivity to pain, in particular to pressure, and analgesics raise the threshold of the sensitivity.
The inflammation is obtained by injecting 0.1 ml of a 20% strength aqueous suspension of brewer's yeast under the plantar aponeurosis of one of the hind feet. […] The pain threshold is assessed in terms of the force necessary and sufficient to initiate a characteristic reaction of withdrawing the foot.
The sensitivity to pain of the inflamed foot reaches a plateau 4 hours after the injection of the brewer's yeast, and then remains stable until the 6th hour. The pain threshold of the inflamed foot in control rats weighing 140 g is reached for pressures of 50 to 60 g, whereas it is around 160 g for the intact foot.
The action of the substance administered orally to series of 10 rats is expressed in terms of the percentage increase in the mean pain threshold, compared with that measured in the rats of a control series of 10 animals which have not received a compound of the invention.
The test products are administered orally (stomach tube) one hour before the injection of brewer's yeast.
The comparative compound used is ketoprofen.

[3] = test system: rat hind foot carragheenin-induced oedema; test: Carragheenin-induced oedema test; assay type: in vivo; settings: 3 h, first experiment, Table X, read-out: percentage inhibition of the inflammation; for change in vivo at 25 mg/kg: 25 mg/kg oral; for change in vivo at 50 mg/kg: 50 mg/kg oral; for change in vivo at 100 mg/kg: 100 mg/kg oral
Procedure: In this test, 10 rats are used per test compound of the invention. Control batches of 10 rats also receive either the comparative compound (ketoprofen) or exclusively an NaCl solution.
The compounds of the invention are administered orally (stomach tube) one hour before the injection of carragheenin.
The carragheenin is suspended at a concentration of 1% in a 0.9% isotonic sodium chloride solution. The volume injected into the rat's foot is 0.20 ml.
The volume of the foot is measured before the injection and 3 hours later. The antagonistic effect of the products towards carragheenin is reflected in the inhibition of the volume of the oedema compared with control rats. The latter receive only isotonic NaCl solution under identical conditions.

[4] = test system: rat hind foot kaolin-induced oedema; test: Kaolin-induced arthritis test, first experiment (decrease in inflammation, foot volume); assay type: in vivo; settings: 1 h before kaolin, Table IX, read-out: percentage decrease in the inflammation; for change in vivo at 25 mg/kg: 25 mg/kg oral; for change in vivo at 50 mg/kg: 50 mg/kg oral; for change in vivo at 100 mg/kg: 100 mg/kg oral
Procedure: The […] of 0.05 ml of a sterile 10% strength suspension of kaolin into the metatarsal flexor sheath of the hind foot of a rat initially induces an oedematous reaction. An inflammatory arthritis then forms.
The early oedematous reaction appears from the first hour, and reaches its maximum between the fourth hour and the sixth hour. This is the manifestation of interest. The assessment of the volume of the foot enables the action of substances on the oedematous reaction to be studied. The measurements are carried out using a Giono and Chevilard plethysmometer.
The test products are administered orally (stomach tube) one hour before the injection of the kaolin.
The results are expressed as a percentage decrease in the inflammation in the treated animals compared with a control series of animals.
The batches are of 10 animals per dose and 10 control animals.
The figures shown represent the mean of 10 animals.

[5] = first experiment, read-out: Isomers of LTB4: percentage inhibition (+ : percentage increase in the production)
[6] = first experiment, read-out: LTB4: percentage inhibition (+ : percentage increase in the production)
[7] = first experiment, read-out: Oxidized metabolites of LTB4: percentage inhibition (+ : percentage increase in the production)

| Structure (SMILES) | inhibition at 40 µM [1, 5] | inhibition at 40 µM [1, 6] | inhibition at 40 µM [1, 7] | change in vivo at 25 mg/kg [2] | change in vivo at 50 mg/kg [2] | change in vivo at 100 mg/kg [2] | change in vivo at 25 mg/kg [3] | change in vivo at 50 mg/kg [3] | change in vivo at 100 mg/kg [3] | change in vivo at 25 mg/kg [4] | change in vivo at 50 mg/kg [4] | change in vivo at 100 mg/kg [4] | inhibition at 40 µM ([1]; second experiment, read-out: Percentage inhibition of LTB4 formation) |
| --- | --- | --- | --- | --- | --- | --- | --- | --- | --- | --- | --- | --- | --- |
| O=C(O)CCCCCCCCCCCNS(=O)(=O)c1ccccc1C(=O)c1ccccc1 [Compound 1683] | 15% | 15% | 30% | 15% | 20% | 30% | -25% | -30% | -35% | -25% | -30% | -40% | – |
| O=C(O)CNS(=O)(=O)c1ccc(Cl)cc1C(=O)c1ccccc1 [Compound 1565] | – | – | – | 18% | 28% | 42% | -18% | -22% | -49% | -15% | -20% | -45% | – |
| O=C(O)CCCCCCCCCCCNS(=O)(=O)c1ccc(C(=O)c2ccccc2)cc1 [Compound 1687] | 0% | 16% | -30% | 25% | 35% | 50% | -25% | -30% | -48% | -23% | -28% | -50% | – |
| O=C(c1ccccc1)c1ccccc1S(=O)(=O)NCCCN1CCOCC1 [Compound 1340] | – | – | – | 10% | 20% | 49% | -5% | -5% | -10% | -10% | -25% | -45% | – |
| O=C(O)CCCCCCCCCCCNS(=O)(=O)c1cccc(C(=O)c2cc(S(=O)(=O)NCCCCCCCCCCCC(=O)O)ccc2Cl)c1 [Compound 1689] | -30% | -30% | 20% | – | – | – | – | – | – | – | – | – | – |
| O=C(O)CNS(=O)(=O)c1ccc(Cl)cc1C(=O)c1ccccc1Cl [Compound 1575] | – | – | – | 15% | 19% | 35% | -15% | -18% | -35% | -18% | -21% | -37% | – |
| O=C(O)CCCCCNS(=O)(=O)c1ccc(Cl)cc1C(=O)c1ccccc1 [Compound 1569] | – | – | – | 10% | 15% | 25% | -30% | -35% | -50% | -28% | -30% | -45% | – |
| O=C(O)CCCNS(=O)(=O)c1ccc(C(=O)c2cccs2)cc1 [Compound 1738, 4-[4-(2-thenoyl)benzenesulphonamido]butyric acid] | – | – | – | – | – | – | – | – | – | – | – | – | 20% |
| O=C(O)CCCCCNS(=O)(=O)c1ccc([N+](=O)[O-])cc1C(=O)c1ccccc1 [Compound 1568] | – | – | – | 18% | 25% | 48% | -15% | -20% | -35% | -15% | -18% | -40% | – |
